From patent EP0546533A2, “Medical use of kininogenase” (SANWA KAGAKU KENKYUSHO CO., LTD., priority 1991, dated 1993)
Counter-ions that a name gives are not always drawn. Non-standard residues stand in square brackets, D forms with d. Residues, ends and D or L forms follow the SMILES beside them. *: point of attachment. pNA = O=[N+]([O-])c1ccc(N*)cc1; AMC = Cc1cc(=O)oc2cc(N*)ccc12

What was measured:
[1] = target: T1, kininogenase extracted and purified from human urine (original solution) (Homo sapiens, UniProt P06870); test: Enzymatic dynamic constants with lower molecule synthetic substrates; assay type: biochemical; settings: synthetic substrate
T1 construct: from tissue; host or cells: human urine (pooled, healthy males)
Description: In the next place, An ability of the kininogenase for making free the kinin was periodically checked by using canine lower molecule kininogen, human lower molecule kininogen and human higher molecule kininogen in various concentration, as substrates to calculate enzymatic dynamic constants of the kininogenase.
An activity of the kininogenase to decomposition of lower molecule synthetic substrates was checked as in said Item (A) to calculate enzymatic dynamic constants of the kininogenase.

[2] = system: model animal with hypoxia; test: Influence to model animal with hypoxia (5% O2 breathing); assay type: in vivo, New Zealand white rabbits
Method: Each of female New Zealand white rabbits (body weight of about 3kg) were anethetized with pentbarbital-Na, and a tube was inserted, at once, into their trachea to cause an adjusted breathing with air through a respirator.
After intravenously injecting 0.5mg/kg of tubocurarine chloride to cause an amyotonia, the animal was transferred to a fixing device to cause an orientation of her brain to peel bellies along a median line in its vertex and to form two apertures or windows of 0.5 x 0.5cm at right front portion and 1.0 x 0.5cm at right rear portion of the skull. To the front window, a silver ball electrode was set to measure brain-wave in the cortex, and a local blood flow in the cortex and P02 in brain were measured by utilizing the rear window. Number of heat beats was measured by making trigger R-wave of the […]. These parameters were recorded by feeding the same to a polygraph, crossed thermocouple and recticorder.
After stabilized of each parameters, the air from the respirator was changed to 5% 02 and at once, drugs given later was intravenously injected to continue the experiment for 10 minutes.
• (A) Control group (n = 3) : • Administrated 3.3ml of phosphate buffer (0.05M, pH 7) for 30 minutes at rate of 0.11 ml/min. • (B) 5.0 x 10-^3 PNA units/kg Administration group (n = 3) : • Administrated 3.3ml of solution for 30 minutes at rate of 0.11 ml/min., which solution was prepared by diluting a kininogenase solution of 5.0 x 10-^2 PNA units/ml with phosphate buffer (0.05M, pH 7) by 10 folds. • (C) 2.5 x 10-^3 PNA units/kg Administration group (n = 3) : • Administrated 3.3ml of solution for 30 minutes at rate of 0.11 ml/min., which solution was prepared by diluting a kininogenase solution of 2.5 x 10-^2 PNA units/ml with phosphate buffer (0.05M, pH 7) by 10 folds. • (D) 1.5 x 10-^3 PNA units/kg Administration group (n = 3) : • Administrated 3.3ml of solution for 30 minutes at rate of 0.11 ml/min., which solution was prepared by diluting a kininogenase solution of 1.5 x 10-^2 PNA units/ml with phosphate buffer (0.05M, pH 7) by 10 folds. • (E) Citicholine (100mg/kg) administration group (n = 3) : • Administrated 3.3ml of a solution for 30 minutes at rate of 0.11 ml/min., which solution was prepared by taking 4ml of Nicholine injection solution (250mg/2ml), and diluting the same with phosphate buffer (0.05M, pH 7) to make the drug concentration to 100mg/kg. • (F) Citicholine (10mg/kg) administration group (n = 3) : • Administrated 3.3ml of a solution for 30 minutes at rate of 0.11 ml/min., which solution was prepared by taking 2ml of Nicholine injection solution (100mg/2ml), and diluting the same with phosphate buffer (0.05M, pH 7) to make the drug concentration to 10mg/kg. • (G) Nicardipine (4a g/kg) administration group (n = 3) : • Taking 10mg of Nicardipine, and diluting the same with saline to make the drug concentration to 4µ g/kg to administrate 0.1 ml/kg for 20 seconds.
A ratio of change was calculated on the number of heart beats, and an amount of change was calculated on the P02 in brain and local blood flow in brain. The brain-wave was analyzed with an analyzer (Type ATAC-450 marketed by Japan Photoelectric Co., Ltd.) to print out results. A statistic inspection or examination was carried out with use of a program of FM 11 marketed by Fujitu Co., Ltd. and judged as there is a significant difference, when P value is 0.05 or less in Student's t-test.

[3] = system: model animal with cerebral infarction; test: Cerebral circulation and metabolism in cerebral infarction model (micro-glass bead injection); assay type: in vivo, rabbit
Method: A micro-glass bead was injected into right hemicerebrum of an anethetized healthy rabbit to prepare a model animal with cerebral infarction. After administration of a drug, local blood flow (in cortex portion), micro-circulation in cerebral pia leptmeninges, distribution of cerebral blood flow and concentrations of P02, ATP, lactate, pyruvate, glucose and glucose-6-phosphate were measured. The measurement of biochemical substances was carried out after lapsed 60 minutes from the administration of the drug.
A change in diameter arterioles in cerebral pia leptmeninges was observed, as to blood vessels having diameters of >100, >50 to <100 and <50u m, under microscope and according to Cranial window method.

[4] = system: region occurred a cerebral infarction; test: Influence to region of cerebral infarction 24 hours after glass bead injection; assay type: in vivo, rabbit; settings: 100mg/kg, sustaining administration for 30 minutes
Method: With use of model animals as in Pharmacological Test Example 4, an influence of a drug to region occurred a cerebral infarction at the time after lapsed 24 hours from the injection of glass bead was checked.

[5] = system: brain in ischemic state; test: Cerebral ischemia by ligation of vertebral and common carotid arteries, then release; assay type: in vivo, rabbit
Method: Both of side vertebral arteries of a healthy rabbit were permanently ligated, both of the common carotid arteries were ligated for 40 minutes to make the brain in ischemic state, and then released the ligation of the common carotid arteries to observe a local blood flow and brain-wave in cerebral cortex portion and to measure concentrations of ATP and lactate in the cortex portion, at the time lapsed 15 minutes from the release of blood flow in the common carotid arteries. Following drugs were administrated in following manner. Citicholine : • Intravenously administrated for 30 minutes from 15 minutes before the ligation of common carotid arteries and at a dose of 100mg/kg. Nicardipine : • Rapidly administrated into an upper portion of small intestine at the time of 15 minutes before the ligation of common carotid arteries.

[6] = system: model animal destroyed in its internal capsule; assay type: in vivo, New Zealand white rabbit; settings: citicholine 100mg/kg i.v. for 30 minutes
Description: An influence of kininogenase to an improvement in an arousal reaction of brain wave in cerebral cortex was checked by selecting a rabbit as a test animal, electrically canterigating an internal capsule to prepare a model animal with symptoms similar to a person caused a cerebral hemorrhage, and administrating the drug, since the destruction of internal capsule gives a partial obstacle to an invigoration system in ascending rectacular region, which has been said as having a close relation with the arousal reaction of brain-wave in cortex.
A cannula was fitted in an auricle vein of a female New Zealand white rabbit to anethetize the animal by intravenously administrating pentbarbital-Na (30mg/kg). […] A concentration of PC02 in the artery blood was periodically measured by a blood gas analyzer to adjust the respirator, so that the concentration lies in a suitable level of 35 ± 5mmHg). […]
The brain-wave was monopolarly derived by the screw type electrode to record on a polygraph and also recorded on a magnetic tape by a data recorder. A cardiogram, blood pressure and number of heart beats were recorded on the polygraph through a secondary induction, a pressure transducer and a momentary heart beat recorder which subjects to cause a trigger the R wave for the cardiogram, respectively. […]
A voltage firstly appeared an arousal reaction, when a voltage for stimulating the rectacular regions shall be raised up with an interval of 5V, and a period of time during which the arousal reaction continues, when the rectacular regions are stimulated with voltage of 4V were defined as the "arousal reaction threshold value" and "arousal reaction sustaining time". The threshold value and sustaining time were visually judged from waves recorded on the charts and shown with units of voltage value (V) and time (sec.). […]

[7] = system: middle cerebral artery obstructive model animal; test: Nerve dysfunction, cerebral circulation and brain wave in middle cerebral artery obstruction model; assay type: in vivo, Japanese monkey; settings: citicholine 10mg/kg intravenous infusion, 24 hours after obstruction
Method: A tube was fitted to left-outernal carotid artery of anesthetized Japanese monkey and a silicone resin pellet [1 mm (q) ) x 5mm] was inserted into the artery through the tube to prepare a middle cerebral artery obstructive model animal.
After lapsed 5 minutes from the obstruction of left middle cerebral artery, kininogenase (2.5 x 10-^2 PNA units/kg) or citicholine (10mg/kg) as a test and control drugs was administrated through an intravenous infusion.

[8] = 5% O2, citicholine 100mg/kg or 10mg/kg i.v., Nicardipine 4µ g/kg

T1 sequence (P06870 25-262): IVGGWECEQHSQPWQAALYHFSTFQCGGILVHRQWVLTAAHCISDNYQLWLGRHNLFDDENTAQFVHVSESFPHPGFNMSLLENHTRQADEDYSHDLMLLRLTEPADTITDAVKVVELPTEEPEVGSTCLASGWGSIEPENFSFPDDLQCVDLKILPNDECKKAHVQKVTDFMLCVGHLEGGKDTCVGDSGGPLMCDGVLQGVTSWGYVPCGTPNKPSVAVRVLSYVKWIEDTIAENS

CCOC(=O)[C@H](CCCNC(=N)N)NC(=O)c1ccccc1 [BAEE, Benzoyl-L-Arg ethyl ether hydrochloride]
Km [1]: 252 µM | Vmax [1]: 4.23e-05 min⁻¹ mg⁻¹

C[N+](C)(C)CCOP(=O)(O)OP(=O)([O-])OC[C@H]1O[C@@H](n2ccc(N)nc2=O)[C@H](O)[C@@H]1O [Citicholine]
Influence to P02 in cerebral cortex (suppression of decrease) [2, 8]: no suppressing effect | Influence to local blood flow in cerebral cortex (suppression of increase) [2, 8]: no effect | Influence to brain-wave in cortex portion ([2]; 5% O2, citicholine at dose of 100mg/kg): low-amplitude and quick wave | Influence to number of heart beats ([2]; versus control group, citicholine 100mg/kg or 10mg/kg i.v. for 30 minutes, Nicardipine 4µ g/kg for 20 seconds): no significant difference | suppression of ATP decrease ([3]; 60 minutes after administration of the drug): did not show the suppress of ATP decrease | Blood flow in cerebral cortex portion at the ischemic side ([3]; Nicardipine 0.5mg/kg rapid into upper small intestine, citicholine 10mg/kg sustaining intravenous): no increase | Region of infarction (%) ([4]; 24 hours after glass bead injection): 30.8 ± 19.8% | Inhibition (%) ([4]; versus control): -35.9% | local blood flow in cerebral cortex portion after release of blood flow ([5]; citicholine 100mg/kg i.v. for 30 minutes, Nicardipine rapidly into upper small intestine, 15 minutes before ligation): did not suppresses the blood flow increase | reactivation of flattened brain-wave ([5]; citicholine 100mg/kg i.v., Nicardipine into upper small intestine): not recognized | frequency components of brain wave in cortex portion (quick wave components) ([6]; reported as a tendency): reduction of quick wave components is suppressed | Sustaining period of time in the arousal reaction ([6]; versus control group): not recognized | Threshold value of arousal reaction ([6]; versus control group): No apparent change | blood flow in cerebral cortex [7]: no improvement | brain wave activities [7]: no improvement | neuro symptoms ([7]; versus control group): improvement

Cc1cc(=O)oc2cc(NC(=O)[C@H](CCCNC(=N)N)NC(=O)[C@H](Cc3ccccc3)NC(=O)[C@@H]3CCCN3)ccc12 [MCA, L-Pro-L-Phe-L-Arg-4-methyl-cumaryl-7-amide] (H-Pro-Phe-Arg-{AMC})
Km [1]: 34 µM | Vmax [1]: 2.57e-05 min⁻¹ mg⁻¹

COC(=O)C1=C(C)NC(C)=C(C(=O)OCCN(C)Cc2ccccc2)C1c1cccc([N+](=O)[O-])c1 (centres unmarked) [Nicardipine]
Influence to local blood flow in cerebral cortex (suppression of increase) [2, 8]: no effect

CC(C)C[C@H](NC(=O)[C@H](N)C(C)C)C(=O)N[C@@H](CCCNC(=N)N)C(=O)Nc1ccc([N+](=O)[O-])cc1 [PNA, H-D-Val-L-Leu-L-Arg-p-nitroanilide dihydrochloride] (H-[dV]-Leu-Arg-pNA)
Km [1]: 8.95 µM | Vmax [1]: 7.8e-06 min⁻¹ mg⁻¹
